According to article PMC6270570, “New Flurbiprofen Derivatives: Synthesis, Membrane Affinity and Evaluation of in Vitro Effect on β-Amyloid Levels” (Molecules, 2013):
Like-named read-outs stand apart in the source and are kept apart here.

Key:
[1] = system: APP; settings: 24 h
Experimental: For detection of cell viability, a Trypan blue dye exclusion test has been performed [33].
Cell lysates (20 µg) have been electrophoresed and transferred to nitrocellulose membrane. […] Immunoreactive bands have been detected by ECL detection system (Amersham Intl., Buckinghamshire, UK) and analysed by densitometry. Densitometric values, expressed as Integrated Optical Intensity (I.O.I.), have been estimated in a CHEMIDOC XRS system by the QuantiOne 1-D analysis software (BioRad, Richmond, CA, USA). Values obtained have been normalized basing on densitometric values of internal β tubulin. Statistical analysis has been performed using the analysis of variance (ANOVA). Results have been expressed as mean ± SD. Values of p < 0.05 have been considered statistically significant.

[2] = PAMPA-GI permeability (egg lecithin in dodecane); format: in vitro ADME; settings: read-out: PAMPA-GI Pe
Experimental: (§1) The following protocol was applied to measure the Pe through the artificial membrane to predict oral absorption and BBB permeation. In order to study the g.i. permeability, a 2% solution (w/v) of egg lecithin (phosphatidyl choline > 98%, PC) in dodecane was employed as an artificial membrane solution. The effective permeability of BBB was measured using phospholipid mixture from porcine polar brain lipid extract, composed by PC 12.6%, phosphatidylethanolamine (PE) 33.1%, phosphatidylserine (PS) 18.5%, phosphatidylinositol (PI) 4.1%, phospatidic acid (PA) 0.8% and 30.9% of other compounds (purchased from Avantis Polar Lipids, Alabaster, AL, USA). Each donor filtration plate well was then impregnated with 5 µL of this solution carefully, and immediately after 150 µL of phosphate buffer (pH 7.4/pH 6.5), containing co-drug 1 500 µM and iPrOH 20% as co-solvent was added. Then the drug-filled donor plate was placed into the acceptor plate that had been prefilled with the same buffer (300 µL) as acceptor solution. After plate lid was replaced, the resulting assembled donor-acceptor plates were incubated at r.t. for 2 h for PAMPA-GI and 18 h for PAMPA-BBB, following which drugs concentration in the acceptor and donor solutions were determined by HPLC [37].
(§2) Log Pe can be calculated from the equation below: [drawing 10] (2) where Pe is the effective permeability coefficient (cm x s^−1), VD is volume of donor compartment (0.15 cm^3) and VA is volume of acceptor compartment (0.30 cm^3), A is effective filter area (0.28 cm^2), t is incubation time for the assay (s), Cacceptor is the concentration of the compound in the acceptor compartment at the completion of the assay, and Cequilibrium is the concentration of compound at theoretical equilibrium.

[3] = system: Aβ-42; assay: Western blotting of Aβ-42 expression in CTXTNA2 astrocytes (in vitro γ-secretase activity); format: cell-based, rat; settings: 24 h
Experimental: CTXTNA2 cell line, established from primary cultures of type 1 astrocytes from brain frontal cortex tissue of 1 day old rats, was obtained by ECACC (Salisbury, UK). Cells have been maintained in DMEM, 10% FBS at 37 °C, 5% CO2 until sub-confluence and incubated for 24 h with a DMSO solution of drug (concentrations ranging from 1 µM to 100 µM). For detection of cell viability, a Trypan blue dye exclusion test has been performed.
Cell lysates (20 µg) have been electrophoresed and transferred to nitrocellulose membrane. Nitrocellulose membranes, blocked in 5% non-fat milk, 10 mmol/L Tris pH 7.5, 100 mmol/L NaCl, 0.1% Tween-20, have been probed with mouse APP (Millipore, Billerica, MA, USA) and Aβ (Alpha Diagnostic Intl, San Antonio, TX, USA) monoclonal antibodies (Santa Cruz Biotechnology, Santa Cruz, CA, USA), then incubated in the presence of specific enzyme conjugated IgG horseradish peroxidase. Immunoreactive bands have been detected by ECL detection system (Amersham Intl., Buckinghamshire, UK) and analysed by densitometry. Densitometric values, expressed as Integrated Optical Intensity (I.O.I.), have been estimated in a CHEMIDOC XRS system by the QuantiOne 1-D analysis software (BioRad, Richmond, CA, USA). Values obtained have been normalized basing on densitometric values of internal β tubulin. Statistical analysis has been performed using the analysis of variance (ANOVA). Results have been expressed as mean ± SD. Values of p < 0.05 have been considered statistically significant.

[4] = PAMPA-BBB permeability (porcine polar brain lipid extract); format: in vitro ADME; settings: PAMPA
Experimental: as §1, §2

[5] = IAM-HPLC affinity for membrane phospholipids (logKIAM/W); format: physicochemical; settings: IAM.PC.MG column, pH 7.0 phosphate buffer/acetonitrile, extrapolated to 100% aqueous eluent
Experimental: n-Octanol/water partition coefficients were theoretically calculated by the program clogP for windows version 2.0 (Biobyte Corp., Claremont, CA, USA). Affinity for membrane phospholipids, so called “phospholipophilicity”, was measured by HPLC on a phospholipid stationary phase. […] liquid chromatograph (Waters-Millipore, Milford, MA, USA), equipped with a 7125 Rheodyne injection valve and a 486 UV detector (Waters) set at 246 nm, was used. The column was an IAM.PC.MG (Immobilized Artificial Membrane-PhosphatidylCholine-MethylGlycolate) (4.6 mm × 150 mm) (Regis Chemical Company, Morton Grove, IL, USA). The mobile phase was 0.01 M phosphate buffer at pH 7.0 and acetonitrile at percentages ranging from 10 to 35 percent (v/v) (from 1.0 to 4.0 mL/min). The chromatography was carried out at room temperature. All samples were dissolved in methanol (ca. 10^-3 M) and 20 μL samples were injected in the chromatograph. Chromatographic retention data are expressed as the logarithm of the capacity factor, log k, defined as: log k = log [(tr - t0)/t0] (1) where tr and t0 are the retention times of the drug and a non-retained compound (citric acid), respectively. The log k values relative to 100% aqueous eluent (logKIAM/W) were calculated by performing a polycratic method of extrapolation. Each compound was eluted with at least three different mobile phases containing acetonitrile in different percentages (φ). […] All values of log k reported are the average of at least three measurements; the 95% confidence interval never exceeded 0.04 for each log k value. Possible occurrence of retention changes due to column aging was monitored by checking the retention times of five test compounds (amlodipine, p-nitroaniline, toluene, isradipine, and ketoprofen).

[6] = pH 7.4, 18 h of incubation, read-out: PAMPA-BBB Pe

| Structure (SMILES) | melting point [°C] | Expression of APP ([1]; 1 µM) | Expression of APP ([1]; 10 µM) | Expression of APP ([1]; 100 µM) | Papp at 2 h, 500 µM ([2]; pH 6.5, 2 h of incubation) [×10⁻⁶ cm/s] | Papp at 2 h, 500 µM ([2]; pH 7.4, 2 h of incubation) [×10⁻⁶ cm/s] | Expression of Aβ-42 ([3]; 1 µM) | Expression of Aβ-42 ([3]; 10 µM) | Expression of Aβ-42 ([3]; 100 µM) | Papp at 18 h, 500 µM [4, 6] [×10⁻⁶ cm/s] | LogKIAM/W [5] | Papp at 18 h, 500 µM ([4]; read-out: Pe, BBB penetration) [×10⁻⁶ cm/s] | Aβ-42 production, effect in words ([3]; 1 µM to 100 µM, without affecting the APP level) |
| --- | --- | --- | --- | --- | --- | --- | --- | --- | --- | --- | --- | --- | --- |
| C[C@H](NC(=O)[C@H](C)c1ccc(-c2ccccc2)c(F)c1)C(=O)N[C@H](C(=O)OC(C)(C)C)c1ccccc1 [Compound 1, tert-Butyl (2S)-({N-[(2R)-2-(2-fluoro-1,1'-biphenyl-4-yl)propanoyl]-L-alanyl}amino)(phenyl)acetate] | 105 to 107 | (93.1 ± 3.8) × 10^−2 | (89.4 ± 3.2) × 10^−2 | (120 ± 3.2) × 10^−2 | 3.7 | 4.8 | (29.2 ± 1.2) × 10^−2 | (43.5 ± 1.6) × 10^−2 | (45.8. ± 1.3) × 10^−2 | 2.4 | 3.67 | – | – |
| C[C@@H](C(=O)N[C@H]1C(=O)N(C)c2ccccc2-c2ccccc21)c1ccc(-c2ccccc2)c(F)c1 [Compound 4, (2R)-2-(2-Fluoro-1,1'-biphenyl-4-yl)-N-[(7R)-5-methyl-6-oxo-6,7-dihydro-5H-dibenzo[b,d]azepin-7-yl]propanamide] | 100 to 103 | (51.3 ± 2.6) × 10^−2 | (39.9 ± 1.6) × 10^−2 | (60.1 ± 2.7) × 10^−2 | – | – | (11.0 ± 0.4) × 10^−2 | (12.1 ± 0.4) × 10^−2 | (16.2 ± 0.7) × 10^−2 | – | 3.21 | ≥ 4 | – |
| C[C@@H](C(=O)N[C@@H]1C(=O)N(C)c2ccccc2-c2ccccc21)c1ccc(-c2ccccc2)c(F)c1 [Compound 5, (2R)-2-(2-Fluoro-1,1'-biphenyl-4-yl)-N-[(7S)-5-methyl-6-oxo-6,7-dihydro-5H-dibenzo[b,d]azepin-7-yl]propanamide] | 102 to 103 | (41.1 ± 1.7) × 10^−2 | (44.2 ± 2.1) × 10^−2 | (49.2 ± 3.2) × 10^−2 | – | – | (17.4. ± 0.3) × 10^−2 | (17.1 ± 0.6) × 10^−2 | (17.4. ± 0.5) × 10^−2 | – | 3.93 | – | – |
| C[C@H](C(=O)N[C@H]1C(=O)N(C)c2ccccc2-c2ccccc21)c1ccc(-c2ccccc2)c(F)c1 [Compound 6, (2S)-2-(2-Fluoro-1,1'-biphenyl-4-yl)-N-[(7R)-5-methyl-6-oxo-6,7-dihydro-5H-dibenzo[b,d]azepin-7-yl]propanamide] | 104 to 105 | (11.3 ± 0.4) × 10^−2 | (10.4 ± 0.2) × 10^−2 | (13.5 ± 0.5) × 10^−2 | – | – | (19.0 ± 0.6) × 10^−2 | (16.2 ± 0.5) × 10^−2 | (13.4 ± 0.7) × 10^−2 | – | 3.93 | – | – |
| C[C@H](C(=O)N[C@@H]1C(=O)N(C)c2ccccc2-c2ccccc21)c1ccc(-c2ccccc2)c(F)c1 [Compound 7, (2S)-2-(2-Fluoro-1,1'-biphenyl-4-yl)-N-[(7S)-5-methyl-6-oxo-6,7-dihydro-5H-dibenzo[b,d]azepin-7-yl]propanamide] | 102 to 104 | (9.0 ± 0.3) × 10^−2 | (8.0 ± 0.3) × 10^−2 | (10.1 ± 3.2) × 10^−2 | – | – | (12.4. ± 0.1) × 10^−2 | (11.1 ± 0.3) × 10^−2 | (9.2 ± 0.3) × 10^−2 | – | 3.21 | ≥ 4 | highly effective |
| C[C@H](NC(=O)Cc1cc(F)cc(F)c1)C(=O)N[C@H](C(=O)OC(C)(C)C)c1ccccc1 [DAPT, reference compound] | – | (65.4 ± 2.8) × 10−2 | (62.1 ± 2.8) × 10−2 | (58.3 ± 1.9) × 10−2 | 2.5 | 2.6 | (8.3 ± 0.2) × 10−2 | (6.4 ± 0.1) × 10−2 | (5.5 ± 0.3) × 10−2 | 2.2 | 1.61 | – | – |
| C[C@H](NC(=O)[C@@H](O)c1cc(F)cc(F)c1)C(=O)N[C@@H]1C(=O)N(C)c2ccccc2-c2ccccc21 [LY-411575, reference compound] | – | (64.0 ± 2.4) × 10^−2 | (54.7 ± 2.0) × 10^−2 | (57.2 ± 1.2) × 10^−2 | 2.3 | 2.5 | (8.2 ± 0.1) × 10^−2 | (6.0 ± 0.1) × 10^−2 | (4.1 ± 0.2) × 10^−2 | 2 | 1.85 | – | – |
| CC(C)[C@H](O)C(=O)N[C@@H](C)C(=O)N[C@@H]1C(=O)N(C)CCc2ccccc21 [LY-450139, reference compound] | – | (65.9 ± 2.3) × 10^−2 | (60.0 ± 1.6) × 10^−2 | (58.8 ± 2.5) × 10^−2 | 1.6 | 1.8 | (9.4. ± 0.3) × 10^−2 | (5.1 ± 0.1) × 10^−2 | (5.4 ± 0.2) × 10^−2 | 1.4 | 0.11 | – | – |
| C[C@@H](C(=O)O)c1ccc(-c2ccccc2)c(F)c1 [R-FLU, (R)-enantiomer of flurbiprofen, reference compound] | – | (60.0 ± 1.3) × 10^−2 | (54.5 ± 2.3) × 10^−2 | (52.1 ± 2.1) × 10^−2 | 2.4 | 2.1 | (20.5 ± 0.7) × 10^−2 | (19.1 ± 0.5) × 10^−2 | (14.1 ± 0.7) × 10^−2 | 1.6 | 1.82 | ≥ 2 | – |
| C[C@H](C(=O)O)c1ccc(-c2ccccc2)c(F)c1 [S-Flurbiprofen, reference compound] | – | (60.6 ± 2.5) × 10^−2 | (65.2 ± 1.8) × 10^−2 | (53.2 ± 1.9) × 10^−2 | – | – | (18.8. ± 0.6) × 10^−2 | (19.0 ± 0.7) × 10^−2 | (15.4 ± 0.3) × 10^−2 | – | – | – | – |
